Laboratory results published in patent publication US12319652B2, “Salts and solid forms of (R)-1-(5-methoxy-1H-indol-1-yl)-N,N-dimethylpropan-2-amine” (priority 2021, dated 2025).
Like-named read-outs stand apart in the source and are kept apart here.

Tests used:
[1] = type: physicochemical
Protocol: Equilibrium Humidity Evaluation (40° C./75% RH for 10 Days)
100 mg portions of compound 1 salts (for inputs see table below) were placed in the relevant open vials. The powders were finely divided and distributed evenly over the base of the vial, such that equal material coverage across the panel was observed. These samples were then maintained 40°C. under 75% RH. The samples were sub-sampled at intervals of 5 and 10 days and analysed by ^1H NMR, HPLC, XRPD, DSC, TGA and PLM, for evidence of phase change or chemical degradation (FIG. 269-297).

[2] = Dynamic vapor sorption (DVS); type: physicochemical
Protocol: There are two main methods to use, one is by time where the equilibration is given by a fixed time, i.e., 1 hour per step and is appropriate for an unknown phase. The second, is by mass per time unit (dm/dt) of 0.002%/min; that is when the difference in weight is less than 0.002%, the instrument moves onto the next step. For unknown hygroscopicity, the method by time is indicated because it gives an idea of water affinity without wasting much time. Ideally the analyses are repeated using the mass equilibration method to confirm. By experience for hygroscopic samples, the analysis can continue for days. For non-hygroscopic samples the difference between the two methods may not be significant.
Consequently, amorphous batch 1 was analyzed by the fixed time method and once compound 1 fumarate crystalline polymorphic Form A was generated the analyses was repeated as mass per unit time equilibrated @dm/dt ([…]) and is given below (refer to FIG. 12).
(§1) The moisture sorption properties of the feed API were analysed by DVS Intrinsic instrument (Surface Measurement System). Approximately 20 to 50 mg of API was weighed onto an aluminium pan and loaded into the instrument equilibrated at 25° C. The sample was equilibrated under a dry atmosphere (0% relative humidity) for 60 minutes, before increasing the humidity from 0% to 30% at 5%4 step increment and from 30% to 90% at 10% step increment. A desorption cycle was also applied from 90% to 30% (10% step decrement) and from 30% to 0% (5% step decrement). A rate of change in mass per time unit (dm/dt) of 0.002%/min was set as the equilibrium parameter. Kinetic and isotherm graphs were calculated.
Specimens were equilibrated at 0% RH for 60 min, prior to DVS analyses (stepped increment % RH up to 90% RH and stepped decrement % RH down to 0% RH.
as §1, with “5%” for “5%4”

[3] = Solubility determinations in SIF buffers (FaSSIF, FeSSIF, FaSSGF); type: physicochemical; details: for XRPD (dried) / XRPD (wet): solid residue
Protocol: At this stage ca. 1 g of each front-runner salt form was prepared. Salt forms that offered significant solubility and stability advantages over the non-ionized API were prioritized. […] Scale Up
The solubility of the salts below was determined in FaSSIF, FeSSIF and FaSSGF by reference to the calibration curve of amorphous compound 1.
Separate portions of compound 1 were weighed out into aluminum boats and were charged to the relevant volumetric flasks. Solutions were made to volume with 1 to 1 (v/v) acetonitrile/purified water to give calibrants of known API concentrations and analyzed by HPLC, suitable to determine the concentration of compound 1 free base in the SIF buffer solubility study.
Each sample (150 mg) was suspended in the relevant SIF buffer (5.0 ml), to give a concentration of 30 mg/ml and maintain at 37° C. for 24 h. The pH was adjusted using 1 M HCl or 1 M NaOH, to ensure that the suspension remains in range.
Sample (1 ml) of the well-stirred representative suspensions was obtained at 1 h, 3 h, 6 h and 24 h and the pH was recorded. The pH of the bulk suspension was re-adjusted when necessary. The obtained sample from each vial was centrifuged, and the supernatant was analysed by HPLC (note, the analyte was diluted, when outside of the calibration range); XRPD analysis was performed on the wet sample pellet for evidence of form change, as well as on the oven-dried pellet (undervacuum at 40° C.).

[4] = FaSSGF (ph 1.6), t = 1 h@37° C.
[5] = FaSSGF (ph 1.6), t = 3 h@37° C.
[6] = FaSSGF (ph 1.6), t = 6 h@37° C.
[7] = FaSSGF (ph 1.6), t = 24 h @37° C.

## COc1ccc2c(ccn2C[C@@H](C)N(C)C)c1.O=C(O)c1ccccc1 [Benzoate salt]
[1]; salt before storage (t = 0)
  HPLC peak RRT 1.00 (reference peak): 99.64
  HPLC peak RRT 1.09: 0.03
  HPLC peak RRT 1.16: 0.03
  HPLC peak RRT 1.19: 0.10
  HPLC peak RRT 1.20: 0.02
  HPLC peak RRT 1.24: 0.06
  HPLC peak RRT 1.26: 0.01
  HPLC peak RRT 1.35: 0.10
[1]; t = 5 d at 75% RH at 40° C.
  HPLC peak RRT 0.98: 0.04
  HPLC peak RRT 1.00 (reference peak): 99.64
  HPLC peak RRT 1.16: 0.03
  HPLC peak RRT 1.19: 0.10
  HPLC peak RRT 1.20: 0.02
  HPLC peak RRT 1.26: 0.05
  HPLC peak RRT 1.35: 0.11
[1]; t = 10 d at 75% RH at 40° C.
  HPLC peak RRT 0.98: 0.04
  HPLC peak RRT 1.00 (reference peak): 99.52
  HPLC peak RRT 1.08: 0.05
  HPLC peak RRT 1.16: 0.04
  HPLC peak RRT 1.19: 0.13
  HPLC peak RRT 1.20: 0.02
  HPLC peak RRT 1.26: 0.07
  HPLC peak RRT 1.35: 0.12

## COc1ccc2c(ccn2C[C@@H](C)N(C)C)c1.Cl [Compound 1 HCl (Form A)]
[2]; 0.0% RH, sorption
  DVS 0 to 90 to 0% RH (dm/dt <0.002%): DVS 0 to 90 to 0% RH (dm/dt <0.002%): 0.0 (0.00%), 5.0 (0.00%),
[2]; 5.0% RH, desorption
  DVS 0 to 90 to 0% RH (dm/dt <0.002%): 0.03%
[2]; 5.0% RH, sorption
  DVS 0 to 90 to 0% RH (dm/dt <0.002%): DVS 0 to 90 to 0% RH (dm/dt <0.002%): 0.0 (0.00%), 5.0 (0.00%),
[2]; 10.0% RH, desorption
  DVS 0 to 90 to 0% RH (dm/dt <0.002%): 0.04%
[2]; 10.0% RH, sorption
  DVS 0 to 90 to 0% RH (dm/dt <0.002%): 0.02%
[2]; 15.0% RH, desorption
  DVS 0 to 90 to 0% RH (dm/dt <0.002%): 0.05%
[2]; 15.0% RH, sorption
  DVS 0 to 90 to 0% RH (dm/dt <0.002%): 0.02%
[2]; 20.0% RH, desorption
  DVS 0 to 90 to 0% RH (dm/dt <0.002%): 0.06%
[2]; 20.0% RH, sorption
  DVS 0 to 90 to 0% RH (dm/dt <0.002%): 0.03%
[2]; 25.0% RH, desorption
  DVS 0 to 90 to 0% RH (dm/dt <0.002%): 0.07%
[2]; 25.0% RH, sorption
  DVS 0 to 90 to 0% RH (dm/dt <0.002%): 0.04%
[2]; 30.0% RH, desorption
  DVS 0 to 90 to 0% RH (dm/dt <0.002%): 0.09%
[2]; 30.0% RH, sorption
  DVS 0 to 90 to 0% RH (dm/dt <0.002%): 0.05%
[2]; 40.0% RH, desorption
  DVS 0 to 90 to 0% RH (dm/dt <0.002%): 0.10%
[2]; 40.0% RH, sorption
  DVS 0 to 90 to 0% RH (dm/dt <0.002%): 0.07%
[2]; 50.0% RH, desorption
  DVS 0 to 90 to 0% RH (dm/dt <0.002%): 0.14%
[2]; 50.0% RH, sorption
  DVS 0 to 90 to 0% RH (dm/dt <0.002%): 0.10%
[2]; 60.0% RH, desorption
  DVS 0 to 90 to 0% RH (dm/dt <0.002%): 0.17%
[2]; 60.0% RH, sorption
  DVS 0 to 90 to 0% RH (dm/dt <0.002%): 0.14%
[2]; 70.0% RH, desorption
  DVS 0 to 90 to 0% RH (dm/dt <0.002%): 0.22%
[2]; 70.0% RH, sorption
  DVS 0 to 90 to 0% RH (dm/dt <0.002%): 0.19%
[2]; 80.0% RH, desorption
  DVS 0 to 90 to 0% RH (dm/dt <0.002%): 0.29%
[2]; 80.0% RH, sorption
  DVS 0 to 90 to 0% RH (dm/dt <0.002%): 0.26%
[2]; 90.0% RH, desorption
  DVS 0 to 90 to 0% RH (dm/dt <0.002%): 0.46%
[2]; 90.0% RH, sorption
  DVS 0 to 90 to 0% RH (dm/dt <0.002%): 0.46%

## COc1ccc2c(ccn2C[C@@H](C)N(C)C)c1.O=C(O)c1ccccc1 [Compound 1 · Benzoate]
[3]; [4]
  Solubility: 28.74 mg/mL
  XRPD (dried): Benzoic acid
  XRPD (wet): Benzoic acid
[3]; [5]
  Solubility: 26.85 mg/mL
  XRPD (dried): Benzoic acid
  XRPD (wet): Benzoic acid
[3]; [6]
  Solubility: 26.33 mg/mL
  XRPD (dried): Benzoic
  XRPD (wet): Benzoic acid
[3]; [7]
  Solubility: 25.59 mg/mL
  XRPD (dried): Benzoic
  XRPD (wet): Benzoic
[3]; FaSSIF (ph 6.5), t = 1 h@37° C.
  Solubility: >30 mg/mL
[3]; FaSSIF (ph 6.5), t = 3 h@37° C.
  Solubility: >30 mg/mL
[3]; FaSSIF (ph 6.5), t = 6 h@37° C.
  Solubility: >30 mg/mL
[3]; FaSSIF (ph 6.5), t = 24 h @37° C.
  Solubility: >30 mg/mL
[3]; FeSSIF (ph 5.0), t = 1 h@37° C.
  Solubility: >30 mg/mL
[3]; FeSSIF (ph 5.0), t = 3 h@37° C.
  Solubility: >30 mg/mL
[3]; FeSSIF (ph 5.0), t = 6 h@37° C.
  Solubility: >30 mg/mL
[3]; FeSSIF (ph 5.0), t = 24 h @37° C.
  Solubility: >30 mg/mL
